Patent US20260209215A1, “GLYCINE DERIVATIVES WITH P2X4 RECEPTOR-BLOCKING ACTIVITY AS DIAGNOSTICS AND FOR THE TREATMENT OF PAIN, INFLAMMATION, CANCER, AND OTHER P2X4 RECEPTOR-RELATED DISEASES” (RHEINISCHE-FRIEDRICH-WILHELMS-UNIVERSITÄT BONN, priority 2022, published 2026)

Molecular target: T1, P2X4 receptor (Homo sapiens, UniProt Q99571)
T1 construct: expressed in transfected cells; host or cells: 1321N1 astrocytoma cells, retroviral vector pQCXIN, G418 selection, monoclones
T1 sequence (Q99571 1-388): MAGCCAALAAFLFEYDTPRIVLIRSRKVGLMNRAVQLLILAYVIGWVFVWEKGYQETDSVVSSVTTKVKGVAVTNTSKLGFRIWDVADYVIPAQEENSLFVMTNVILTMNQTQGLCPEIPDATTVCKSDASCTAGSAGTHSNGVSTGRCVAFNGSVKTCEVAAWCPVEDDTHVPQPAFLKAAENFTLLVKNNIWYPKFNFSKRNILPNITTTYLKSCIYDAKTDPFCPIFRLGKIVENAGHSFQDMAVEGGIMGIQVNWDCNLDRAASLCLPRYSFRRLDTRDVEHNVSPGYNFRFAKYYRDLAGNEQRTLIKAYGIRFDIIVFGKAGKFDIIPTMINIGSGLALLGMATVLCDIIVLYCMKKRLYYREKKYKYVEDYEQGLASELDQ
Assay: Measurement of Ca2+ influx in transfected 1321N1 astrocytoma cells (P2X4 inhibitory potency)
Type: cell-based
Conditions: agonist-mediated Ca2+ influx, FLUO-4, 1321N1 astrocytoma cells; antagonists added 30 min before agonist
Description: The rat, mouse, and human P2X4 DNA, respectively, were cloned into the retroviral vector pQCXIN. 1321N1 Astrocytoma cells were transfected with the DNA using a retroviral system as described previously. In brief, GP+envAM12 packaging cells were first transiently co-transfected with a retroviral vector to generate the retrovirus and with a vesicular stomatitis virus G protein (VSV-G) to pseudotype the virus and to increase their infection efficiency. The viruses containing the rat, mouse or human P2X4 receptor sequence were then used to create a stable astrocytoma cell line. P2X4 receptor-expressing cells were selected with G418 ([…]).
The selection of monoclones for rat and human P2X4 receptors was performed using the limited dilution method by plating the cells at very low cell densities (1 cell clone per well in 96-well plates). Cells were counted, and then several dilutions were made to obtain a concentration of […]. We subsequently added 100 µL of the diluted cell suspension into each well expecting to obtain on average 1 cell per well. After a few days the wells that contained single clones were labeled and transferred into 24 well plates. More than 20 clones were selected for each cell line and characterized in calcium influx assay.
Measurement of Ca^2+ influx in transfected 1321N1 astrocytoma cells
P2X receptor function was determined on the basis of agonist-mediated increases in cytosolic Ca^2+ concentration. The fluorescent Ca^2+chelating dye FLUO-4 was used as an indicator of the relative levels of intracellular Ca^2+ in a 96-well format using a fluorescence imaging plate reader (Novostar, BMG, Germany). Cells were grown to confluence in 96-well black-walled tissue culture plates and loaded with FLUO-4 AM ([…]) in Hank's balanced salt solution (HBSS, containing 10 mM HEPES, pH 7.3, and 1% Pluronic® F127) for 1 h at 23° C. After incubation, the loaded cells were washed with the same buffer to remove extracellular FLUO-4 AM. Compound solutions were prepared in HBSS (containing 20 mM HEPES, pH 7.3) or DMSO depending on their solubility. […] Fluorescence intensity was measured at 520 nm for 30 s at 0.4 s intervals. Buffer or test compounds were injected sequentially into separate wells using the automatic pipetting device. At least three independent experiments were performed in triplicate or duplicate. Antagonists were added 30 min before the addition of agonists. The assays were performed in a final volume of 200 μL. Compounds were tested at 7-8 different concentrations spanning three orders of magnitude of concentrations. Statistical significances were calculated using the unpaired two-tailed t-test.

| SMILES | IC50 |
| --- | --- |
| Cc1nsc(-c2ccc(C)c(NCC(=O)c3c[nH]c4c(C(C)O)cccc34)c2)n1 (centres unmarked) [Example 112, 1-(7-(1-hydroxyethyl)-1H-indol-3-yl)-2-((2-methyl-5-(3-methyl-1,2,4-thiadiazol-5-yl)phenyl)amino)ethan-1-one] | 0.1 to 19 nM |
| COc1nccc2c(C(=O)CNc3cc(-c4nc(C)ns4)ccc3C)c[nH]c12 [Example 110, 1-(7-methoxy-1H-pyrrolo[2,3-c]pyridin-3-yl)-2-((2-methyl-5-(3-methyl-1,2,4-thiadiazol-5-yl)phenyl)amino) ethan-1-one] | 20 to 39 nM |
| CCc1nsc(-c2ccc(C)c(NCC(=O)N3CCc4c(OC(F)(F)C(=O)O)cccc43)c2)n1 [Example 87, 2-((1-((5-(3-ethyl-1,2,4-thiadiazol-5-yl)-2-methyl-phenyl)glycyl)indolin-4-yl)oxy)-2,2-difluoro-acetic acid] | 40 to 69 nM |
| Cc1nsc(-c2ccc(C)c(NCC(=O)N3CCc4c3cccc4C3(O)COC3)c2)n1 [Example 55, 1-(4-(3-hydroxyoxetan-3-yl)indolin-1-yl)-2-((2-methyl-5-(3-methyl-1,2,4-thiadiazol-5-yl)phenyl)amino)ethan-1-one] | 0.1 to 19 nM |
| Cc1nsc(-c2ccc(C)c(NCC(=O)N3CCc4c(O)cccc43)c2)n1 [Example 85, 1-(4-hydroxyindolin-1-yl)-2-((2-methyl-5-(3-methyl-1,2,4-thiadiazol-5-yl)phenyl)-amino)ethan-1-one] | 0.1 to 19 nM |
| Cc1noc(-c2ccc(C)c(NCC(=O)N3CCc4c3cccc4N3C(=O)CNC3=O)c2)n1 [Example 83, 3-(1-((2-methyl-5-(3-methyl-1,2,4-oxadiazol-5-yl)phenyl)glycyl)indolin-4-yl)imidazolidine-2,4-dione] | 20 to 39 nM |
| Cc1nsc(-c2ccc(C)c(NCC(=O)N3CCc4c3cccc4N3CC(=O)NC3=O)c2)n1 [Example 54, 1-(1-((2-methyl-5-(3-methyl-1,2,4-thiadiazol-5-yl)phenyl)glycyl)indolin-4-yl) imidazolidine-2,4-dione] | 70 to 99 nM |
| Cc1noc(-c2ccc(C)c(NCC(=O)N3CCc4c(N5CCC(O)C5)cccc43)c2)n1 (centres unmarked) [Example 25, 1-(4-(3-hydroxy-pyrrolidin-1-yl)indolin-1-yl)-2-((2-methyl-5-(3-methyl-1,2,4-oxadiazol-5-yl)phenyl)amino)ethan-1-one] | 0.1 to 19 nM |
| Cc1nsc(-c2ccc(C)c(NCC(=O)N3CCc4c3cccc4N(S(C)(=O)=O)S(C)(=O)=O)c2)n1 [Example 78, N-(1-((2-methyl-5-(3-methyl-1,2,4-thiadiazol-5-yl)phenyl)glycyl)indolin-4-yl)-N-(methylsulfonyl) methanesulfonamide] | 0.1 to 19 nM |
| Cc1noc(-c2ccc(F)c(NCC(=O)N3CCc4c(C(O)C(F)(F)F)cccc43)c2)n1 (centres unmarked) [Example 41, 2-((2-fluoro-5-(3-methyl-1,2,4-oxadiazol-5-yl)phenyl)amino)-1-(4-(2,2,2-trifluoro-1-hydroxyethyl)indolin-1-yl)ethan-1-one] | 20 to 39 nM |
| Cc1ccc(-c2ccc(C3CC3)cn2)cc1NCC(=O)N1CCc2c(OCC(C)(C)O)cccc21 [Example 114, 2-((5-(5-cyclopropyl-pyridin-2-yl)-2-methyl-phenyl)amino)-1-(4-(2-hydroxy-2-methyl-propoxy)indolin-1-yl) ethan-1-one] | 40 to 69 nM |
| Cc1noc(-c2ccc(F)c(NCC(=O)N3CCc4c3cccc4C(C)(O)CO)c2)n1 (centres unmarked) [Example 60, 1-(4-(1,2-dihydroxypropan-2-yl)indolin-1-yl)-2-((2-fluoro-5-(3-methyl-1,2,4-oxadiazol-5-yl)phenyl)amino)ethan-1-one] | 40 to 69 nM |
| Cc1nsc(-c2ccc(C)c(NCC(=O)N3CCc4c(N5CCC6(CC5)COC6)cccc43)c2)n1 [Example 23, 1-(4-(2-oxa-7-azaspiro[3.5]nonan-7-yl)indolin-1-yl)-2-((2-methyl-5-(3-methyl-1,2,4-thiadiazol-5-yl)phenyl)-amino)ethan-1-one] | 0.1 to 19 nM |
| Cc1nc(-c2ccc(C)c(NCC(=O)c3c[nH]c4ccccc34)c2)no1 [Example 106, 1-(1H-indol-3-yl)-2-((2-methyl-5-(5-methyl-1,2,4-oxadiazol-3-yl)phenyl)amino)ethan-1-one] | 40 to 69 nM |
| Cc1ccc(-c2ccc(C)c(NCC(=O)N3CCc4c3cccc4N3C4CCC3CC(O)C4)c2)o1 (centres unmarked) [Example 36, 1-(4-(3-hydroxy-8-azabicyclo[3.2.1]octan-8-yl)indolin-1-yl)-2-((2-methyl-5-(5-methylfuran-2-yl)phenyl)amino)ethan-1-one] | 20 to 39 nM |
| Cc1nsc(-c2ccc(C)c(NCC(=O)N3CCc4ccccc43)c2)n1 [Example 52, 1-(indolin-1-yl)-2-((2-methyl-5-(3-methyl-1,2,4-thiadiazol-5-yl)phenyl)amino)ethan-1-one] | 40 to 69 nM |

Other lines, results leading:

| IC50 | SMILES |
| --- | --- |
| 20 to 39 nM | Cc1nsc(-c2ccc(C)c(NCC(=O)c3cn4c5c(cccc35)C(=O)NCC4)c2)n1 [Example 99, 7-((2-methyl-5-(3-methyl-1,2,4-thiadiazol-5-yl)phenyl)glycyl)-3,4-dihydro-[1,4]diazepino[6,7,1-hi] indol-1(2H)-one] |
| 0.1 to 19 nM | COc1cc2[nH]cc(C(=O)CNc3cc(-c4nc(C)ns4)ccc3OC)c2cc1F [Example 94, 1-(5-fluoro-6-methoxy-1H-indol-3-yl)-2-((2-methoxy-5-(3-methyl-1,2,4-thiadiazol-5-yl)phenyl)amino)ethan-1-one] |
| 0.1 to 19 nM | Cc1nsc(-c2ccc(C)c(NCC(=O)N3CCc4c3cccc4N3C(=O)CCS3(=O)=O)c2)n1 [Example 13, 2-(1-((2-methyl-5-(3-methyl-1,2,4-thiadiazol-5-yl)phenyl)glycyl)indolin-4-yl) isothiazolidin-3-one 1,1-dioxide] |
| 40 to 69 nM | Cc1noc(-c2ccc(C)c(NCC(=O)N3CCc4c(O)cccc43)c2)n1 [Example 86, 1-(4-hydroxyindolin-1-yl)-2-((2-methyl-5-(3-methyl-1,2,4-oxadiazol-5-yl)phenyl)amino)-ethan-1-one] |
| > 100 nM | Cc1nsc(-c2cc(NCC(=O)N3CCc4c3cc(Br)cc4[C@@](C)(O)CO)c(C)cc2Br)n1 (stereo in doubt) [Example 123, 2-((4-bromo-2-methyl-5-(3-methyl-1,2,4-thiadiazol-5-yl)phenyl)amino)-1-(6-bromo-4-(1,2-dihydroxypropan-2-yl)indolin-1-yl)ethan-1-one] |
| > 100 nM | Cc1nsc(-c2ccc(C)c(NCC(=O)N3CCc4c(CS(C)(=N)=O)cccc43)c2)n1 (centres unmarked) [Example 69, imino(methyl)((1-((2-methyl-5-(3-methyl-1,2,4-thiadiazol-5-yl)phenyl)glycyl)indolin-4-yl)methyl)sulfanone] |
| 0.1 to 19 nM | Cc1nsc(-c2ccc(C)c(NCC(=O)N3CCc4c3cccc4C(C)(F)CO)c2)n1 (centres unmarked) [Example 63, 1-(4-(2-fluoro-1-hydroxypropan-2-yl)indolin-1-yl)-2-((2-methyl-5-(3-methyl-1,2,4-thiadiazol-5-yl)phenyl)amino)ethan-1-one] |
| 70 to 99 nM | COC(=O)c1cccc2c1CCN2C(=O)CNc1cc(-c2ccc(C)cn2)ccc1OC [Example 119, methyl 1-((2-methoxy-5-(5-methylpyridin-2-yl)phenyl)glycyl) indoline-4-carboxylate] |
| 40 to 69 nM | Cc1ccc(-c2ccc(C(C)C)cn2)cc1NCC(=O)N1CCc2c(OCCOCCO)cccc21 [Example 113, 1-(4-(2-(2-hydroxyethoxy)ethoxy)indolin-1-yl)-2-((5-(5-isopropylpyridin-2-yl)-2-methylphenyl)amino) ethan-1-one] |
| 0.1 to 19 nM | Cc1nsc(-c2ccc(C)c(NCC(=O)N3CCc4c(-c5cc[nH]n5)cccc43)c2)n1 [Example 70, 1-(4-(1H-pyrazol-3-yl)indolin-1-yl)-2-((2-methyl-5-(3-methyl-1,2,4-thiadiazol-5-yl)phenyl)amino)ethan-1-one] |
